Assay results as given in US8026229B2, “Antitumor-active 2-alkoxyestradiol sulfamates” (Sterix Limited, priority 2001, dated 2011).

Assays:
[1] = molecular target: T1, microtubular protein (tubulin) from porcine brains (Sus scrofa, UniProt P02550+P02554); assay: Inhibition of tubulin polymerization in vitro (turbidimetry at 340 nm); assay type: biochemical; details: microtubular protein 1 mg/ml, 0.25 mM GTP, 37° C.
T1 construct: Microtubular protein was purified by the method of Shelanski et al; from tissue; host or cells: porcine brain
Method: The inventive compounds were tested in various models. The inventive compounds of general formula I are remarkable in that they inhibit tubulin polymerization more than does 2-methoxyestradiol. The effect on tubulin polymerization was tested in vitro in the following way:
Microtubular protein was purified by the method of Shelanski et al. (Shelanski et al., Proc. Natl. Acad. Sci. USA 1973, 70, 765-8) via cyclic assembly/disassembly from porcine brains. The buffer system used had the following composition: 20 mM PIPES (1,4-piperazinediethanesulfonic acid, pKa 6.8), 80 mM NaCl, 0.5 mM MgCl2, 1 mM EGTA (ethylene glycol bis(2-aminoethyl)tetraacetic acid). Protein concentrations of 1 mg/ml (approx. […] tubulin) were used to test the active substance. The protein was determined by the method of Lowry (Lowry et al., J. Biol. Chem. 1951, 193, 265-75) using bovine serum albumin as standard. The assembly of the microtubuli was carried out in the presence of 0.25 mM GTP and heating of the samples to 37° C.
Microtubulus formation was checked using turbidimetry at a wavelength of 340 nm.
The active substances were tested by adding them at the beginning of the assembly or at the state of equilibrium. Their effectiveness is characterized by deviations in the turbidity curves from those of the control. To check the effect and evaluate the turbidity values measured, a transmission electron microscopic examination (CEM 902 A, Zeiss, Oberkochen, Germany) of the assemblate was always carried out after negative staining with 1% aqueous uranyl acetate.

tubulin = details: literature, J. Med. Chem. 1997, 40, 2323-2334; cited from earlier work

T1 sequence (P02554 whole entry): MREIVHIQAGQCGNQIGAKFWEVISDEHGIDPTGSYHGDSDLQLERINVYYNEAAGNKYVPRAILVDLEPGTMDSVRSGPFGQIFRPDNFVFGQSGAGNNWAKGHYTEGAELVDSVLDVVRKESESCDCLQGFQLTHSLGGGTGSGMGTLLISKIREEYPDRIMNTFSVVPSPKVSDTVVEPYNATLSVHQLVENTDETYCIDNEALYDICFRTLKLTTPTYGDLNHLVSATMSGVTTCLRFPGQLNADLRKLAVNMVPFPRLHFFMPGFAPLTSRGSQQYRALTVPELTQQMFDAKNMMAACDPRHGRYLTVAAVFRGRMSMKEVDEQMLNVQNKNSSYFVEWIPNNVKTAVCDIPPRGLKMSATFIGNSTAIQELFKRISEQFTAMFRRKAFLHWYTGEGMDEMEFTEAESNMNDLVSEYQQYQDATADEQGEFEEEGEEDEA
T1 sequence (P02550 whole entry): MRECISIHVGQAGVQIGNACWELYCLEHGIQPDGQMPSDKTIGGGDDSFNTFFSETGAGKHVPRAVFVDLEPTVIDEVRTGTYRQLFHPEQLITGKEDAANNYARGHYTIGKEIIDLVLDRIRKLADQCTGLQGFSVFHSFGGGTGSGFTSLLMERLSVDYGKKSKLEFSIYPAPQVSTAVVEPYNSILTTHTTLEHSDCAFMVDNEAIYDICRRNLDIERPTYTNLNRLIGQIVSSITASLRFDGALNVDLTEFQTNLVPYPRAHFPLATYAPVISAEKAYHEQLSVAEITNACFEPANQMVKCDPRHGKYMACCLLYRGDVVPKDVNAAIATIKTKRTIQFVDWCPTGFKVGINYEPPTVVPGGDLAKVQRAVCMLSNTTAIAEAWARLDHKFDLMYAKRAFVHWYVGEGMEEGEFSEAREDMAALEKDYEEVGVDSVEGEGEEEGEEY

| SMILES | IC50 [1] | Activity in inhibition of tubulin polymerization compared with 2-methoxyestradiol (tubulin) |
| --- | --- | --- |
| COc1cc2c(cc1O)CCC1C2CC[C@@]2(C)C1CC[C@@H]2O (stereo partly shown) [2-Methoxyestradiol] | > 3000 nM | – |
| COc1cc2c(cc1OS(N)(=O)=O)CCC1C2CC[C@]2(C)C(=O)CCC12 (stereo partly shown) [2-Methoxyestrone-3-sulfamate] | 1600 nM | – |
| CCOc1cc2c(cc1O)CC[C@@H]1[C@@H]2CC[C@]2(C)[C@@H](O)CC[C@@H]12 [2-ethoxyestradiol] | – | higher than that of 2-methoxyestradiol |
| COc1cc2c(cc1OS(N)(=O)=O)CC[C@@H]1[C@@H]2CC[C@]2(C)[C@@H](O)CC[C@@H]12 [Example 1, 2-Methoxy-17β-hydroxy-estra-1,3,5(10)-trien-3-yl sulfamate] | 1000 nM | – |
